Laboratory results reported in patent publication US20070082339A1, “Methods and compositions for screening for HDAC inhibitory activity” (priority 2005, published 2007).
Square brackets hold non-standard residues; d marks the D form. Peptide text beside a SMILES is read from it. ξ: configuration not given here. Aoe(9ξ) = N[C@@H](CCCCCC(=O)C1CO1)C(=O)O; dPip = O=C(O)[C@H]1CCCCN1

Legend:
RhoB promoter [1] = assay: Chromatin immunoprecipitation assays; type: cell-based; conditions: region containing the inverted CCAAT box
Protocol: (§1) Furthermore, mutations in this CCAAT box reduced the ability of HDAC1 to confer repression of RhoB promoter activity. In addition, chromatin immunoprecipitation assays reveal that TPX increased the level of chromatin acetylation in the TPX-responsive region of the RhoB promoter containing the inverted CCAAT box. […] The global gene expression profiles of A549 cells following inhibition of HDAC with LAQ824 were determined by DNA microarray analysis.

histone deacetylase 1 = histone deacetylase 1 (Homo sapiens, UniProt Q13547); conditions: Tauton et al. Science 272:408-411 (1996); cited from earlier work
RhoB promoter [2] = assay: RhoB promoter deletion/mutation constructs, induction by TPX; type: cell-based; conditions: following TPX treatment
Protocol: as §1

Sequence of histone deacetylase 1 (Q13547 whole entry, species assumed): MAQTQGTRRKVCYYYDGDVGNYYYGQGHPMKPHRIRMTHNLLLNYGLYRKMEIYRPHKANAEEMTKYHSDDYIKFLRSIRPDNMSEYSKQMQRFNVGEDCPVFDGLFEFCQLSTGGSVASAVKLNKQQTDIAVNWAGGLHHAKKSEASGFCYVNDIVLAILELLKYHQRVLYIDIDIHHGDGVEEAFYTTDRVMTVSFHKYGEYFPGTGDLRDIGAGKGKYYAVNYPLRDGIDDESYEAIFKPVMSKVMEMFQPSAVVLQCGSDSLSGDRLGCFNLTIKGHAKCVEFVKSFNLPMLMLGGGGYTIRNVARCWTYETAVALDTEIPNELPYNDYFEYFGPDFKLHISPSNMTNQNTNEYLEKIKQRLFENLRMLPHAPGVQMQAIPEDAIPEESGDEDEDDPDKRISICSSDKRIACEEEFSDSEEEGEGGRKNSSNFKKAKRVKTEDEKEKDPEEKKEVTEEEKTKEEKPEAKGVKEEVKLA

## O=C(CCCCC[C@@H]1NC(=O)[C@H]2CCCCN2C(=O)[C@H](Cc2ccccc2)NC(=O)[C@H](Cc2ccccc2)NC1=O)C1CO1 (stereo partly drawn) [TPX, trapoxin A] (cyclo(FF[dPip][Aoe(9ξ)]))
RhoB promoter [1]
  level of chromatin acetylation in the TPX-responsive region of the RhoB promoter: increased
Histone deacetylase 1
  inhibition of histone deacetylase 1: potently inhibit
RhoB promoter [2]
  induction of expression from RhoB promoter deletion constructs: induction of expression from all of these deletions is similar
